The record followed here is patent US12668600B2 (Kumquat Biosciences Inc., priority 2023, dated 2026).

Assay type in all cases: biochemical
The target of experiment [1] is T1, KRAS WT (Homo sapiens, UniProt P01116).
T1 construct: made in house; host or cells: E. coli, e.g. BL21 (DE3)
Kind of experiment: HTRF KRAS-SOS1 interaction assay, wildtype KRAS. The conditions noted are these: binned ≤2 μM / >2 μM, read-out: Inhibition of KRAS WT (IC50). From the text: (§1) This assay can be also used to assess a selective inhibition or reduction of signaling output of a mutant Ras protein relative to a wildtype, or relative to a different mutant Ras protein. For example, the equilibrium interaction of wildtype KRAS or K-Ras mutant (e.g., wildtype or a mutant thereof) with SOS1 (e.g., hSOS1) can be assessed as a proxy or an indication for the ability of a subject compound to bind and inhibit Ras protein. The HTRF assay detects from (i) a fluorescence resonance energy transfer (FRET) donor (e.g., antiGST-Europium) that is bound to GST-tagged K-Ras mutant to (ii) a FRET acceptor (e.g., anti-6His-XL665) bound to a His-tagged hSOS1.
(§2) The assay buffer can contain ˜5 mM HEPES pH 7.4, ˜150 mM NaCl, ˜1 mM DTT, 0.05% BSA and 0.0025% (v/v) Igepal. A Ras working solution is prepared in an assay buffer containing typically a suitable amount of the protein construct (e.g., GST-tagged K-Ras mutant) and the FRET donor (e.g., antiGST-Eu (K) from Cisbio, France). A SOS1 working solution is prepared in an assay buffer containing suitable amount of the protein construct (e.g., His-hSOS1) and the FRET acceptor (e.g., anti-6His-XL665 from Cisbio, France). A suitable amount of the protein construct will depend on the range of activity or range of IC50 values being detected or under investigation. For detecting an IC50 within a range of 500 nM, the protein constructs of the same range of molarity can be utilized.
(§3) A fixed volume of DMSO with or without test compound is transferred into a 384-well plate. Ras working solution is added to all wells of the test plate. SOS1 working solution is added to all wells except for those that are subsequently filled with inhibitor control solution. Upon incubation for about 10 minutes or longer, the fluorescence is measured with a M1000Pro plate reader (Tecan) using HTRF detection (excitation 337 nm, emission 1:620 nm, emission 2:665 nm). Compounds are tested in duplicate at different concentrations (for example, 10 μM, 2.5 μM, 0.63 μM, 0.16 μM, 0.04 μM, 0.01 μM test compound). The ratiometric data (i.e., emission 2 divided by emission 1) is used to calculate IC50 values against Ras using GraphPad Prism (GraphPad software). Signaling output measured in terms of IC50 values can be obtained and a ratio of IC50 against one mutant relative to another mutant can be calculated.
(In general: Time-resolved FRET reads energy transfer from a long-lived donor to a nearby acceptor.)

Experiment [2] addresses T2, KRAS G12D (Homo sapiens, UniProt P01116, G12D).
T2 construct: made in house; host or cells: E. coli, e.g. BL21 (DE3)
Description: HTRF KRAS-SOS1 interaction assay, KRAS G12D. The conditions noted are these: binned ≤2 μM / >2 μM, read-out: Inhibition of KRAS G12D (IC50).
Text: as §1, §2, §3

Experiment [3] deals with T3, KRAS G12V (Homo sapiens, UniProt P01116, G12V).
T3 construct: made in house; host or cells: E. coli, e.g. BL21 (DE3)
Kind of experiment: HTRF KRAS-SOS1 interaction assay, KRAS G12V. The conditions noted are these: binned ≤2 μM / >2 μM, read-out: Inhibition of KRAS G12V (IC50).
Text: as §1, §2, §3

pIC50: −log10 of the molar value.

T3 sequence (P01116 1-188 isoform P01116-2 G12V): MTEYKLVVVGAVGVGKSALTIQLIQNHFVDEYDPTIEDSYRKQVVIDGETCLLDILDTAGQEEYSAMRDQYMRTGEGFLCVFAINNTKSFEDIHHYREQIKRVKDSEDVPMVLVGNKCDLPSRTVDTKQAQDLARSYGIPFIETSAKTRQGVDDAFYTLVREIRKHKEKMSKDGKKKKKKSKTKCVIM
T1 sequence (P01116 1-188 isoform P01116-2): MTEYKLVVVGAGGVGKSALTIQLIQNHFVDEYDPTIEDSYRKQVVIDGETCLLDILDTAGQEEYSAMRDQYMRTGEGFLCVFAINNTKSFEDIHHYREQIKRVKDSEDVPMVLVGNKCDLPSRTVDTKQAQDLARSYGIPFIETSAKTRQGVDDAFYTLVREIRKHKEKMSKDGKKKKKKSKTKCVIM
T2 sequence (P01116 1-188 isoform P01116-2 G12D): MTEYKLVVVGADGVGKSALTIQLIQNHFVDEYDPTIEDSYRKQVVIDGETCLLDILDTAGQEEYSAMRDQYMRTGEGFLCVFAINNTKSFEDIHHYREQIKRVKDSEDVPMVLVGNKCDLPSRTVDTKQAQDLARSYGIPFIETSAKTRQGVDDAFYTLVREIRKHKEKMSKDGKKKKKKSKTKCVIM

The pIC50 is the negative decadic logarithm of the IC50, by convention in mol/L. In the case of `N#Cc1c(N)sc2c(F)ccc(-c3c(C(F)(F)F)c4c5c(nc(OC[C@@]67CCCN6C[C@H](F)C7)nc5c3F)N([C@H](CC3CCOC3)c3cccnc3N)CCO4)c12` (single isomer, unassigned) [Compound 717], the pIC50 in experiment [1], in experiment [2] and in experiment [3] was under 5.70 in each case.
As to `CCO/N=C(\C)CCC[C@H](c1cccnc1N)N1CCOc2c(C(F)(F)F)c(-c3ccc(F)c4sc(N)c(C#N)c34)c(F)c3nc(OC[C@@]45CCCN4C[C@H](F)C5)nc1c23` (single isomer, unassigned) [Compound 720], the pIC50 in experiment [1], in experiment [2] and in experiment [3] was at least 5.70 in each case.
Take `C#C[C@H]1COc2c(Cl)c(-c3ccc(F)c4sc(N)c(C#N)c34)c(F)c3nc(OC[C@@]45CCCN4C[C@H](F)C5)nc(c23)N1C(C)c1cccnc1N` (single isomer, unassigned) [Compound 729]: in experiment [2], the negative logarithm of the IC50 (pIC50) was at least 5.70.
In the case of `C=CC[C@H](c1cccnc1N)N1CCOc2c(C(F)(F)F)c(-c3ccc(F)c4sc(N)c(C#N)c34)c(F)c3nc(OC[C@@]45CCCN4C[C@H](F)C5)nc1c23` (single isomer, unassigned) [Compound 734], the negative-log IC50 (pIC50) is under 5.70 in experiment [1], at least 5.70 in experiment [2] and under 5.70 in experiment [3].
On to `N#Cc1c(N)sc2c(F)ccc(-c3c(C(F)(F)F)c4c5c(nc(OC[C@@]67CCCN6C[C@H](F)C7)nc5c3F)N([C@H](CCN3CCOCC3)c3cccnc3N)CCO4)c12` (single isomer, unassigned) [Compound 735], for which the pIC50 in experiment [2] was at least 5.70.
Regarding `N#Cc1c(N)sc2c(F)ccc(-c3c(C(F)(F)F)c4c5c(nc(OC[C@@]67CCCN6C[C@H](F)C7)nc5c3F)N([C@H](CCC3CCC3)c3cccnc3N)CCO4)c12` (single isomer, unassigned) [Compound 745], the pIC50 in experiment [1] and in experiment [2] was at least 5.70 in each case.
For the compound `C[C@H](c1cccnc1N)N1CCOc2c(C(F)(F)F)c(-c3ccc(F)c4sc(N)c(C#N)c34)c(F)c3nc(OC[C@@]45CCCN4CC(C#N)C5)nc1c23` (single isomer, unassigned) [Compound 754], in experiment [2], the pIC50 was at least 5.70.
In the case of `C[C@H](c1cccnc1N)N1CCOc2c(C(F)(F)F)c(-c3ccc(F)c4sc(N)c(C#N)c34)c(F)c3nc(OC[C@@]45CCCN4C[C@H](F)C5)nc1c23` (single isomer, unassigned) [Compound 757], the pIC50 in experiment [1], in experiment [2] and in experiment [3] was at least 5.70 throughout.
On to `CN(C)CC[C@H](c1cccnc1N)N1CCOc2c(C(F)(F)F)c(-c3ccc(F)c4sc(N)c(C#N)c34)c(F)c3nc(OC[C@@]45CCCN4C[C@H](F)C5)nc1c23` (single isomer, unassigned) [Compound 758], for which the negative-log IC50 (pIC50) in experiment [2] is at least 5.70.
On the same count and under the same terms, next, `Cc1cnc(N)c([C@@H](C)N2CCOc3c(C(F)(F)F)c(-c4ccc(F)c5sc(N)c(C#N)c45)c(F)c4nc(OC[C@@]56CCCN5C[C@H](F)C6)nc2c34)n1` (single isomer, unassigned) [Compound 767]: at least 5.70; `C[C@H](c1cccnc1N)N1CCOc2c(Cl)c(-c3ccc(F)c4sc(N)c(C#N)c34)c(F)c3nc(OCC4(CN(C)C)CC4)nc1c23` (single isomer, unassigned) [Compound 771]: at least 5.70.
On to `N#Cc1c(N)sc2c(F)ccc(-c3c(C(F)(F)F)c4c5c(nc(OC[C@@]67CCCN6C[C@H](F)C7)nc5c3F)N([C@H](CC3CCOC3)c3cccnc3N)CCO4)c12` (single isomer, unassigned) [Compound 772], for which the negative-log IC50 (pIC50) in experiment [1], in experiment [2] and in experiment [3] was at least 5.70 each time.
`N#Cc1c(N)sc2c(F)ccc(-c3c(Cl)c4c5c(nc(OC[C@@]67CCCN6C[C@H](F)C7)nc5c3F)N(C(c3cccnc3N)C(F)F)CCO4)c12` (single isomer, unassigned) [Compound 786]: the pIC50 in experiment [2] was at least 5.70.
In the case of `C=Cc1c(-c2ccc(F)c3sc(N)c(C#N)c23)c(F)c2nc(OC[C@@]34CCCN3C[C@H](F)C4)nc3c2c1OCCN3[C@H](C)c1cccnc1N` (single isomer, unassigned) [Compound 787], the negative-log IC50 (pIC50) in experiment [2] is at least 5.70.
On the same count and under the same terms, the same measure for `C[C@H](c1cccnc1N)N1CCOc2c(C(F)(F)F)c(-c3cccc4sc(N)c(C#N)c34)c(F)c3nc(OC[C@@]45CCCN4C[C@H](F)C5)nc1c23` (single isomer, unassigned) [Compound 791]: at least 5.70.
The same measure, in the same setting: the same measure for `N#Cc1c(N)sc2c(F)ccc(-c3c(C(F)(F)F)c4c5c(nc(OC[C@@]67CCCN6C[C@H](F)C7)nc5c3F)N([C@@H](c3cccnc3N)C(F)F)CCO4)c12` (single isomer, unassigned) [Compound 804]: at least 5.70; for `CS(=O)(=O)CCC[C@H](c1cccnc1N)N1CCOc2c(C(F)(F)F)c(-c3ccc(F)c4sc(N)c(C#N)c34)c(F)c3nc(OC[C@@]45CCCN4C[C@H](F)C5)nc1c23` (single isomer, unassigned) [Compound 805]: at least 5.70; for `CC(c1cccnc1N)N1CCOc2c(Cl)c(-c3ccc(F)c4sc(N)c(C#N)c34)c(F)c3nc(OC[C@@]45CCCN4C[C@H](F)C5)nc1c23` (single isomer, unassigned) [Compound 820]: at least 5.70.
On the same count and under the same terms, next, `C[C@H](c1cccnc1N)N1CCOc2c(Cl)c(-c3cccc4sc(N)c(C#N)c34)c(F)c3nc(OC[C@@]45CCCN4C[C@H](F)C5)nc1c23` (single isomer, unassigned) [Compound 823]: at least 5.70.
On to `N#Cc1c(N)sc2c(F)ccc(-c3c(C(F)(F)F)c4c5c(nc(OC[C@@]67CCCN6C[C@H](F)C7)nc5c3F)N([C@H](CC3CCOCC3)c3cccnc3N)CCO4)c12` (single isomer, unassigned) [Compound 824], for which the pIC50 in experiment [2] is at least 5.70.
On the same count and under the same terms, next, `C[C@H](c1cccnc1N)N1CCOc2c(Cl)c(-c3ccc(F)c4sc(N)c(C#N)c34)c(F)c3nc(OCC45CCCN4C[C@H](OCCCP(C)(C)=O)C5)nc1c23` (single isomer, unassigned) [Compound 857]: at least 5.70; `CCO/N=C1\CN2CCC[C@@]2(COc2nc3c4c(c(Cl)c(-c5ccc(F)c6sc(N)c(C#N)c56)c(F)c4n2)OCCN3[C@H](C)c2cccnc2N)C1` (single isomer, unassigned) [Compound 865]: at least 5.70; `N#Cc1c(N)sc2c(F)ccc(-c3c(Cl)c4c5c(nc(OC[C@@]67CCCN6C[C@H](F)C7)nc5c3F)N(C(/C=C\C(F)(F)F)c3cccnc3N)CCO4)c12` (single isomer, unassigned) [Compound 872]: at least 5.70.
Regarding `N#Cc1c(N)sc2c(F)ccc(-c3c(C(F)(F)F)c4c5c(nc(OC[C@@]67CCCN6[C@H](COc6cnc(C(F)(F)F)cn6)CC7)nc5c3F)N([C@@H](c3cccnc3N)C(F)F)CCO4)c12` (single isomer, unassigned) [Compound 887], in experiment [1], the pIC50 was at least 5.70.
In the case of `C[C@H]1CN([C@@H](c2cccnc2N)C(F)F)c2nc(OC[C@@]34CCCN3C[C@H](F)C4)nc3c(F)c(-c4ccc(F)c5sc(N)c(C#N)c45)c(C(F)(F)F)c(c23)O1` (single isomer, unassigned) [Compound 889], the pIC50 in experiment [2] is at least 5.70.
Still for that read-out and setting: the same measure for `CP(C)(=O)CC[C@H](c1cccnc1N)N1CCOc2c(C(F)(F)F)c(-c3ccc(F)c4sc(N)c(C#N)c34)c(F)c3nc(OC[C@@]45CCCN4C[C@H](F)C5)nc1c23` (single isomer, unassigned) [Compound 891]: at least 5.70.
Consider `CO/N=C1\CN2CCC[C@@]2(COc2nc3c4c(c(Cl)c(-c5ccc(F)c6sc(N)c(C#N)c56)c(F)c4n2)OCCN3[C@H](C)c2cccnc2N)C1` (single isomer, unassigned) [Compound 898], for which the pIC50 in experiment [2] is at least 5.70.
Regarding `C[C@@H]1CN(CC2(COc3nc4c5c(c(C(F)(F)F)c(-c6ccc(F)c7sc(N)c(C#N)c67)c(F)c5n3)OCCN4[C@H](C)c3cccnc3N)CC2)C[C@H](C)O1` [Compound 886, 2-amino-4-(4-((R)-1-(2-aminopyridin-3-yl)ethyl)-2-((1-(((2S,6R)-2,6-dimethylmorpholino)methyl)cyclopropyl)methoxy)-10-fluoro-8-(trifluoromethyl)-5,6-dihydro-4H-[1,4]oxazepino[5,6,7-de]quinazolin-9-yl)-7-fluorobenzo[b]thiophene-3-carbonitrile], the negative logarithm of the IC50 (pIC50) in experiment [2] is at least 5.70.
